Laboratory results as given in patent US8883827B2, “Azole derivatives as WTN pathway inhibitors” (Oslo University Hospital HF, priority 2009, dated 2014).

Tested on: SW480 cells
Assay: Illumina microarray gene expression analysis
Assay type: cell-based
Procedure: A microarray analysis using an Illumina® array was performed in triplicate to investigate differential gene expression in cells treated with a Wnt pathway inhibitor. […] In vitro transcription reactions were incubated overnight (14 hr). Labeled cRNA was hybridized to Illumina® Human-6 v3 BeadChips (Illumina, San Diego, Calif.) at 58° C. overnight, according to the Illumina® Whole-Genome Gene Expression Protocol for BeadStation (Doc. #11226030.rev.C, Illumina Inc.). The hybridized BeadChip was stained with streptavidin-Cy3 (Amersham™, PA43001) for visualization and scanned with an Illumina® BeadArray Reader. The scanned images were imported into BeadStudio 3.1.3.0 (Illumina Inc) for extraction and quality control. A criterion of 0.5-fold change in expression was applied to the analysis. […] A list of differentially expressed genes of interest is given below in tables 1 and 2. […] Many known Wnt target genes (column 3) were influenced in treated cells. Some genes were influenced that are also affected in Ls174T colorectal cancer cells expressing an inducible dominant negative form of TCF-4 (column 4) (van de Wetering et al., Mol. Cell. Biol. (2008) 28(8), p. 2732-44). Other influenced genes that are important for cell cycle control and other genes correlated to regulated canonical Wnt signaling are also shown. The degree of modulation (column 5) is an indication of the degree of change between the non-treated and compound No. 1 treated samples.

With `COc1ccc(-n2c(SCc3nc(-c4ccc(C)cc4)no3)nnc2-c2ccncc2)cc1` [Compound 1] the “Degree of modulation: CCAAT/enhancer binding protein (C/EBP), delta” value (x at 10 μM and 25 μM) was “− (moderate down-regulation (log^2 ratio of between −0.5 and −1.0))”, the “Degree of modulation: Kruppel-like factor 4 (gut)” value (x at 10 μM and 25 μM) was “+ (moderate up-regulation (log^2 ratio of between 0.5 and 1.0))” and the “Degree of modulation: Kruppel-like factor 6” value (x at 10 μM and 25 μM) was “++ (strong up-regulation (log^2 ratio of between 1.0 and 1.5))”. The “Degree of modulation: LY6/PLAUR domain containing 5” value (x at 10 μM and 25 μM) was “−−− (very strong down-regulation (log^2 ratio of between −1.5 and −2))”, the “Degree of modulation: LY6/PLAUR domain containing 6B” value (x at 10 μM and 25 μM) was “++ (strong up-regulation (log^2 ratio of between 1.0 and 1.5))” and the “Degree of modulation: SPANXA1” value (x at 10 μM and 25 μM) was “−−− (very strong down-regulation (log^2 ratio of between −1.5 and −2))”. For the same molecule, the “Degree of modulation: SPANXB2” value (x at 10 μM and 25 μM) was “−−− (very strong down-regulation (log^2 ratio of between −1.5 and −2))”, the “Degree of modulation: SPANXC” value (x at 10 μM and 25 μM) was “−−− (very strong down-regulation (log^2 ratio of between −1.5 and −2))” and the “Degree of modulation: SPANXE” value (x at 10 μM and 25 μM) was “−−− (very strong down-regulation (log^2 ratio of between −1.5 and −2))”. The “Degree of modulation: SRY (sex determining region Y)-box 18” value (x at 10 μM and 25 μM) was “− (moderate down-regulation (log^2 ratio of between −0.5 and −1.0))”, the “Degree of modulation: TEA domain family member 4” value (x at 10 μM and 25 μM) was “− (moderate down-regulation (log^2 ratio of between −0.5 and −1.0))” and the “Degree of modulation: WNT1 inducible signaling pathway protein 3” value (x at 10 μM and 25 μM) was “+ (moderate up-regulation (log^2 ratio of between 0.5 and 1.0))”. For the same molecule, the “Degree of modulation: alkaline phosphatase, liver/bone/kidney” value (x at 10 μM and 25 μM) was “− (moderate down-regulation (log^2 ratio of between −0.5 and −1.0))”, the “Degree of modulation: axin 2” value (x at 10 μM and 25 μM) was “− (moderate down-regulation (log^2 ratio of between −0.5 and −1.0))” and the “Degree of modulation: dickkopf homolog 1 (Xenopus laevis)” value (x at 10 μM and 25 μM) was “−− (strong down-regulation (log^2 ratio of between −1.0 and −1.5))”. The “Degree of modulation: frizzled homolog 4 (Drosophila)” value (x at 10 μM and 25 μM) was “− (moderate down-regulation (log^2 ratio of between −0.5 and −1.0))”, the “Degree of modulation: homeobox B2” value (x at 10 μM and 25 μM) was “− (moderate down-regulation (log^2 ratio of between −0.5 and −1.0))” and the “Degree of modulation: homeobox B5” value (x at 10 μM and 25 μM) was “− (moderate down-regulation (log^2 ratio of between −0.5 and −1.0))”. For the same molecule, the “Degree of modulation: homeobox B7” value (x at 10 μM and 25 μM) was “− (moderate down-regulation (log^2 ratio of between −0.5 and −1.0))”, the “Degree of modulation: inhibitor of DNA binding 2, dominant negative helix-loop-helix protein” value (x at 10 μM and 25 μM) was “−− (strong down-regulation (log^2 ratio of between −1.0 and −1.5))” and the “Degree of modulation: mitogen-activated protein kinase kinase 3” value (x at 10 μM and 25 μM) was “+ (moderate up-regulation (log^2 ratio of between 0.5 and 1.0))”. For the same molecule, the “Degree of modulation: naked cuticle homolog 1 (Drosophila)” value (x at 10 μM and 25 μM) was “− (moderate down-regulation (log^2 ratio of between −0.5 and −1.0))”, the “Degree of modulation: peroxisome proliferator-activated receptor gamma” value (x at 10 μM and 25 μM) was “++ (strong up-regulation (log^2 ratio of between 1.0 and 1.5))” and the “Degree of modulation: prickle homolog 2 (Drosophila)” value (x at 10 μM and 25 μM) was “− (moderate down-regulation (log^2 ratio of between −0.5 and −1.0))”. The “Degree of modulation: FYN oncogene related to SRC, FGR, YES” value (x at 10 μM only) was “+ (moderate up-regulation (log^2 ratio of between 0.5 and 1.0))”, the “Degree of modulation: T-cell lymphoma invasion and metastasis 1” value (x at 10 μM only) was “+ (moderate up-regulation (log^2 ratio of between 0.5 and 1.0))” and the “Degree of modulation: catenin (cadherin-associated protein), alpha-like 1” value (x at 10 μM only) was “− (moderate down-regulation (log^2 ratio of between −0.5 and −1.0))”. For the same molecule, the “Degree of modulation: gastrin” value (x at 10 μM only) was “− (moderate down-regulation (log^2 ratio of between −0.5 and −1.0))”, the “Degree of modulation: low density lipoprotein receptor-related protein 5” value (x at 10 μM only) was “+ (moderate up-regulation (log^2 ratio of between 0.5 and 1.0))” and the “Degree of modulation: mitogen-activated protein kinase kinase kinase 1” value (x at 10 μM only) was “+ (moderate up-regulation (log^2 ratio of between 0.5 and 1.0))”. The “Degree of modulation: notum pectinacetylesterase homolog (Drosophila)” value (x at 10 μM only) was “++ (strong up-regulation (log^2 ratio of between 1.0 and 1.5))”, the “Degree of modulation: secreted frizzled-related protein 5” value (x at 10 μM only) was “+ (moderate up-regulation (log^2 ratio of between 0.5 and 1.0))” and the “Degree of modulation: slowmo homolog 1 (Drosophila)” value (x at 10 μM only) was “− (moderate down-regulation (log^2 ratio of between −0.5 and −1.0))”. The “Degree of modulation: transmembrane 4 L six family member 5” value (x at 10 μM only) was “++ (strong up-regulation (log^2 ratio of between 1.0 and 1.5))”, the “Degree of modulation: A kinase (PRKA) anchor protein 1” value (x at 25 μM only) was “+ (moderate up-regulation (log^2 ratio of between 0.5 and 1.0))” and the “Degree of modulation: CD44 molecule (Indian blood group)” value (x at 25 μM only) was “+ (moderate up-regulation (log^2 ratio of between 0.5 and 1.0))”. The “Degree of modulation: FOS-like antigen 1” value (x at 25 μM only) was “+ (moderate up-regulation (log^2 ratio of between 0.5 and 1.0))”, the “Degree of modulation: PDZ and LIM domain 1” value (x at 25 μM only) was “− (moderate down-regulation (log^2 ratio of between −0.5 and −1.0))” and the “Degree of modulation: Sp5 transcription factor” value (x at 25 μM only) was “− (moderate down-regulation (log^2 ratio of between −0.5 and −1.0))”. For the same molecule, the “Degree of modulation: adenomatosis polyposis coli down-regulated 1” value (x at 25 μM only) was “−− (strong down-regulation (log^2 ratio of between −1.0 and −1.5))”, the “Degree of modulation: baculoviral IAP repeat-containing 5” value (x at 25 μM only) was “− (moderate down-regulation (log^2 ratio of between −0.5 and −1.0))” and the “Degree of modulation: bone morphogenetic protein 1” value (x at 25 μM only) was “+ (moderate up-regulation (log^2 ratio of between 0.5 and 1.0))”. The “Degree of modulation: bone morphogenetic protein 7” value (x at 25 μM only) was “− (moderate down-regulation (log^2 ratio of between −0.5 and −1.0))”, the “Degree of modulation: c-abl oncogene 1, receptor tyrosine kinase” value (x at 25 μM only) was “− (moderate down-regulation (log^2 ratio of between −0.5 and −1.0))” and the “Degree of modulation: cell division cycle 25 homolog C (S. pombe)” value (x at 25 μM only) was “− (moderate down-regulation (log^2 ratio of between −0.5 and −1.0))”. For the same molecule, the “Degree of modulation: cell division cycle associated 8” value (x at 25 μM only) was “− (moderate down-regulation (log^2 ratio of between −0.5 and −1.0))”, the “Degree of modulation: cyclin B2” value (x at 25 μM only) was “− (moderate down-regulation (log^2 ratio of between −0.5 and −1.0))” and the “Degree of modulation: cyclin-dependent kinase 8” value (x at 25 μM only) was “− (moderate down-regulation (log^2 ratio of between −0.5 and −1.0))”.
